Consider three substances from patent publication US20100278853A1, “C[…] V3 LOOP PEPTIDES AS NOVEL IMMUNOGENS AND RECEPTOR ANTAGONISTS” (YEDA RESEARCH AND DEVELOPMENT CO., LTD., priority 2003, published 2010).

Experiment [1] has as its target 447Fv. In words: Fluorescence quenching of 447Fv upon titration with the peptide. Details: species or system human. The settings on record: read-out: dissociation constant / binding affinity for 447Fv. As for the experimental part: The R5A-M1 peptide binds 447Fv with a dissociation constant of 10 nM as determined by fluorescence quenching of 447F upon titration with the peptide, so is within one order of magnitude of the binding affinity of the V3 peptide (˜1 nM).

The subject of experiment [2] is 447. In words: Binding affinity of V3 peptides to mAb 447 (method not described). The settings on record: relative to affinity of 447 for V3MN peptide. Details: species or system human.
Experiment [3] has as its system R5 and X4 tropic virus strains. As to conditions: against both R5 and X4 tropic virus strains; cited from earlier work.

For CRKSIHC—GPGRCFYTTGC [R5A-M1], the Kd in experiment [1] came out at 10 nM.

For “TRKSIRIQRGPGRAFVTIGK [V3IIIB, 310-329 gp120IIIB V3 loop peptide expressed in E. coli]”, the “association constant with 447 compared with the corresponding V3MN peptide” value in experiment [2] is listed as “one order of magnitude lower”.

“α-defensin: low molecular weight granulocyte protein, pdb code 1dfn”: the anti-HIV activity result in experiment [3] is recorded as “anti-HIV activity”.
